Patent publication US9365574B2, “Soluble guanylate cyclase activators” (Merck Sharp & Dohme Corp., priority 2010, dated 2016)

Each compound was assayed on Spontaneously hypertensive rats (SHR) (assay: Acute Efficacy in Spontaneously Hypertensive Rats (SHR), telemetry blood pressure). Conditions: dose 0.3 mpk.
Assay type: in vivo, rat
How it was run: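 Male SHR with aortic telemetry catheters, 14-day recovery, conscious and freely moving; single oral gavage in 10% transcutol/20% Cremophor/70% water. BP sampled 30 s every 10 min, hourly averages minus prior-day vehicle baseline; value is maximum peak SBP decrease at stated mg/kg PO dose.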
`Cc1ccc2c(-c3nc(N)c4c(n3)NC(=O)C4(C)C(=O)NC3CC3)nn(CCC(F)(F)F)c2n1` (stereo not shown) [Example 184, 4-Amino-N-Cyclopropyll-5-Methyl-2-[6-Methyl-1-(3,3,3-Trifluoropropyl)-1H-Pyrazolo[3,4-B]Pyridin-3-yl]-6-Oxo-6,7-Dihydro-5H-Pyrrolo[2,3-D]Pyrimidine-5-Carboxamide] was tested, and the “Maximum SBP reduction” value was 19 ± 5 mmHg.
With `CCn1cc(C2(C)C(=O)Nc3nc(-c4nn(CCC(F)(F)C(F)(F)F)c5ncccc45)nc(N)c32)nn1` (stereo not shown) [Example 173, 4-Amino-5-(1-Ethyl-1H-1,2,3-Triazol-4-yl)-5-Methyl-2-[1-(3,3,4,4,4-Pentafluorobutyl)-1H-Pyrazolo[3,4-B]Pyridin-3-yl]-5,7-Dihydro-6H-Pyrrolo[2,3-D]Pyrimidin-6-One] the “Maximum SBP reduction” value was 66 ± 6 mmHg.
In the case of `NC(=O)C1(C2CC2)C(=O)Nc2nc(-c3nn(CCC(F)(F)C(F)(F)F)c4ncccc34)nc(N)c21` (stereo not shown) [Example 162, 4-Amino-5-Cyclopropyl-6-Oxo-2-[1-(3,3,4,4,4-Pentafluorobutyl)-1H-Pyrazolo[3,4-B]Pyridin-3-yl]-6,7-Dihydro-5H-Pyrrolo[2,3-D]Pyrimidine-5-Carboxamide], the “Maximum SBP reduction” value is reported as 26 ± 7 mmHg.

Same assay, conditions: single oral dose 0.1 mpk P.O.
`CC1(C(=O)NC2COC2)C(=O)Nc2nc(-c3nn(CCC(F)(F)C(F)(F)F)c4nc(Cl)ccc34)nc(N)c21` (stereo not shown) [Example 230, 4-amino-2-[6-chloro-1-(3,3,4,4,4-pentafluorobutyl)-1H-pyrazolo[3,4-b]pyridin-3-yl]-5-methyl-N-oxetan-3-yl-6-oxo-6,7-dihydro-5H-pyrrolo[2,3-d]pyrimidine-5-carboxamide] was tested, and the “Maximum peak decrease of systolic blood pressure (SBP) in SHR, Category” value (from here on “Maximum peak decrease”) was “A (Category A=SBP in SHRs<25 mmHg)”.
`CC1(C(=O)NC2CC2)C(=O)Nc2nc(-c3nn(CCC(F)(F)C(F)F)c4ncccc34)nc(N)c21` (stereo not shown) [Example 237, 4-amino-N-cyclopropyl-5-methyl-6-oxo-2-[1-(3,3,4,4-tetrafluorobutyl)-1H-pyrazolo[3,4-b]pyridin-3-yl]-6,7-dihydro-5H-pyrrolo[2,3-d]pyrimidine-5-carboxamide] was tested, and the “Maximum peak decrease” value was “B (Category B=SBP in SHRs 25-40 mmHg)”.

Same assay, conditions: single oral dose 0.3 mpk P.O.
With `Cc1ccc2c(-c3nc(N)c4c(n3)NC(=O)C4(C)C(=O)NC3CC3)nn(CCC(F)(F)F)c2n1` (stereo not shown) [Example 184, 4-Amino-N-Cyclopropyll-5-Methyl-2-[6-Methyl-1-(3,3,3-Trifluoropropyl)-1H-Pyrazolo[3,4-B]Pyridin-3-yl]-6-Oxo-6,7-Dihydro-5H-Pyrrolo[2,3-D]Pyrimidine-5-Carboxamide] the “Maximum peak decrease” value was “A (Category A=SBP in SHRs<25 mmHg)”.
`CNc1nc(-c2nn(CCC(F)(F)C(F)(F)F)c3ncccc23)nc2c1C(C)(c1ccccc1)C(=O)N2` (stereo not shown) [Example 186, 5-Methyl-4-(Methylamino)-2-[1-(3,3,4,4,4-Pentafluorobutyl)-1H-Pyrazolo[3,4-B]Pyridin-3-yl]-5-Phenyl-5,7-Dihydro-6H-Pyrrolo[2,3-D]Pyrimidin-6-One] was tested, and the “Maximum peak decrease” value was “B (Category B=SBP in SHRs 25-40 mmHg)”.
`N#CC1(C2CC2)C(=O)Nc2nc(-c3nn(CCC(F)(F)C(F)(F)F)c4ncccc34)nc(N)c21` (stereo not shown) [Example 163, 4-Amino-5-Cyclopropyl-6-Oxo-2-[1-(3,3,4,4,4-Pentafluorobutyl)-1H-Pyrazolo[3,4-B]Pyridin-3-yl]-6,7-Dihydro-5H-Pyrrolo[2,3-D]Pyrimidine-5-Carbonitrile] was tested, and the “Maximum peak decrease” value was “C (Category C=SBP in SHRs>40 mmHg)”.
For `CCn1cc(C2(C)C(=O)Nc3nc(-c4nn(CCC(F)(F)C(F)(F)F)c5ncccc45)nc(N)c32)nn1` (stereo not shown) [Example 173, 4-Amino-5-(1-Ethyl-1H-1,2,3-Triazol-4-yl)-5-Methyl-2-[1-(3,3,4,4,4-Pentafluorobutyl)-1H-Pyrazolo[3,4-B]Pyridin-3-yl]-5,7-Dihydro-6H-Pyrrolo[2,3-D]Pyrimidin-6-One], the “Maximum peak decrease” value was “C (Category C=SBP in SHRs>40 mmHg)”.
`Cc1nnc(C2(C)C(=O)Nc3nc(-c4nn(CCC(F)(F)F)c5cc(Cl)ccc45)nc(N)c32)o1` (stereo not shown) [Example 198, 4-amino-2-[6-chloro-1-(3,3,3-trifluoropropyl)-1H-indazol-3-yl]-5-methyl-5-(5-methyl-1,3,4-oxadiazol-2-yl)-5,7-dihydro-6H-pyrrolo[2,3-d]pyrimidin-6-one] was tested, and the “Maximum peak decrease” value was “B (Category B=SBP in SHRs 25-40 mmHg)”.
In the case of `CC1(N)C(=O)Nc2nc(-c3nn(CCC(F)(F)C(F)(F)F)c4cc(Cl)ccc34)nc(N)c21` (stereo not shown) [Example 201, 4,5-diamino-2-[6-chloro-1-(3,3,4,4,4-pentafluorobutyl)-1H-indazol-3-yl]-5-methyl-5,7-dihydro-6H-pyrrolo[2,3-d]pyrimidin-6-one], the “Maximum peak decrease” value is reported as “A (Category A=SBP in SHRs<25 mmHg)”.
In the case of `CC1(C(=O)Nc2cccnc2)C(=O)Nc2nc(-c3nc(CCC(F)(F)C(F)(F)F)n4cc(F)ccc34)nc(N)c21` (stereo not shown) [Example 253, 4-amino-2-[6-fluoro-3-(3,3,4,4,4-pentafluorobutyl)imidazo[1,5-a]pyridin-1-yl]-5-methyl-6-oxo-H-pyridin-3-yl-6,7-dihydro-5H-pyrrolo[2,3-d]pyrimidine-5-carboxamide], the “Maximum peak decrease” value is reported as “A (Category A=SBP in SHRs<25 mmHg)”.
For `CC1(c2nncs2)C(=O)Nc2nc(-c3nn(CCCC(F)(F)F)c4ncccc34)nc(N)c21` (stereo not shown) [Example 236, 4-amino-5-methyl-5-(1,3,4-thiadiazol-2-yl)-2-[1-(4,4,4-trifluorobutyl)-1H-pyrazolo[3,4-b]pyridin-3-yl]-5,7-dihydro-6H-pyrrolo[2,3-d]pyrimidin-6-one], the “Maximum peak decrease” value was “B (Category B=SBP in SHRs 25-40 mmHg)”.
With `CC1(C(=O)NC2CCOC2)C(=O)Nc2nc(-c3nn(CCC(F)(F)C(F)(F)F)c4ncccc34)nc(N)c21` (stereo not shown) [Example 235, 4-amino-5-methyl-6-oxo-2-[1-(3,3,4,4,4-pentafluorobutyl)-1H-pyrazolo[3,4-b]pyridin-3-yl]-N-(tetrahydrofuran-3-yl)-6,7-dihydro-5H-pyrrolo[2,3-d]pyrimidine-5-carboxamide] the “Maximum peak decrease” value was “B (Category B=SBP in SHRs 25-40 mmHg)”.
In the case of `CNc1nc(-c2nn(CCC(F)(F)C(F)(F)F)c3cc(Cl)ccc23)nc2c1C(C)(c1ccccc1)C(=O)N2` (stereo not shown) [Example 188, 2-[6-Chloro-1-(3,3,4,4,4-Pentafluorobutyl)-1H-Indazol-3-yl]-5-Methyl-4-(Methylamino)-5-Phenyl-5,7-Dihydro-6H-Pyrrolo[2,3-D]Pyrimidin-6-One], the “Maximum peak decrease” value is reported as “B (Category B=SBP in SHRs 25-40 mmHg)”.
In the case of `CC1(c2nc(C(F)(F)F)no2)C(=O)Nc2nc(-c3nc(CCCC(F)(F)F)n4cc(F)ccc34)nc(N)c21` (stereo not shown) [Example 248, 4-amino-2-[6-fluoro-3-(4,4,4-trifluorobutyl)imidazo[1,5-a]pyridin-1-yl]-5-methyl-5-[3-(trifluoromethyl)-1,2,4-oxadiazol-5-yl]-5,7-dihydro-6H-pyrrolo[2,3-d]pyrimidin-6-one], the “Maximum peak decrease” value is reported as “B (Category B=SBP in SHRs 25-40 mmHg)”.
In the case of `Cc1ccc2c(-c3nc(N)c4c(n3)NC(=O)C4(C)C(=O)NC3CCOCC3)nn(CCC(F)(F)C(F)(F)F)c2n1` (stereo not shown) [Example 239, 4-amino-5-methyl-2-[6-methyl-1-(3,3,4,4,4-pentafluorobutyl)-1H-pyrazolo[3,4-b]pyridin-3-yl]-6-oxo-N-(tetrahydro-2H-pyran-4-yl)-6,7-dihydro-5H-pyrrolo[2,3-d]pyrimidine-5-carboxamide], the “Maximum peak decrease” value is reported as “A (Category A=SBP in SHRs<25 mmHg)”.
`NC(=O)C1(C2CC2)C(=O)Nc2nc(-c3nn(CCC(F)(F)C(F)(F)F)c4ncccc34)nc(N)c21` (stereo not shown) [Example 162, 4-Amino-5-Cyclopropyl-6-Oxo-2-[1-(3,3,4,4,4-Pentafluorobutyl)-1H-Pyrazolo[3,4-B]Pyridin-3-yl]-6,7-Dihydro-5H-Pyrrolo[2,3-D]Pyrimidine-5-Carboxamide] was tested, and the “Maximum peak decrease” value was “B (Category B=SBP in SHRs 25-40 mmHg)”.
In the case of `CC(C)n1nc(C2(C)C(=O)Nc3nc(-c4nn(CCC(F)(F)C(F)(F)F)c5ccncc45)nc(N)c32)oc1=O` (stereo not shown) [Example 199, 4-amino-5-methyl-5-[4-(1-methylethyl)-5-oxo-4,5-dihydro-1,3,4-oxadiazol-2-yl]-2-[1-(3,3,4,4,4-pentafluorobutyl)-1H-pyrazolo[3,4-d]pyridin-3-yl]-5,7-dihydro-6H-pyrrolo[2,3-d]pyrimidin-6-one], the “Maximum peak decrease” value is reported as “B (Category B=SBP in SHRs 25-40 mmHg)”.
In the case of `CC1(C(=O)NC2CC2)C(=O)Nc2nc(-c3nn(CCC(F)(F)C(F)(F)F)c4ncc(Cl)cc34)nc(N)c21` (stereo not shown) [Example 267, 4-amino-2-[5-chloro-1-(3,3,4,4,4-pentafluorobutyl)-1H-pyrazolo[3,4-b]pyridin-3-yl]-N-cyclopropyl-5-methyl-6-oxo-6,7-dihydro-5H-pyrrolo[2,3-d]pyrimidine-5-carboxamide], the “Maximum peak decrease” value is reported as “B (Category B=SBP in SHRs 25-40 mmHg)”.
For `CC1(C(=O)NC2CC2)C(=O)Nc2nc(-n3nc(CCC(F)(F)C(F)(F)F)c4ncccc43)nc(N)c21` (stereo not shown) [Example 266, 4-amino-N-cyclopropyl-5-methyl-6-oxo-2-[3-(3,3,4,4,4-pentafluorobutyl)-1H-pyrazolo[4,3-b]pyridin-1-yl]-6,7-dihydro-5H-pyrrolo[2,3-d]pyrimidine-5-carboxamide], the “Maximum peak decrease” value was “C (Category C=SBP in SHRs>40 mmHg)”.
With `CC1(c2nnc(C3CC3)o2)C(=O)Nc2nc(-c3nn(CCCC(F)(F)F)c4ncccc34)nc(N)c21` (stereo not shown) [Example 225, 4-amino-5-(5-cyclopropyl-1,3,4-oxadiazol-2-yl)-5-methyl-2-[1-(4,4,4-trifluorobutyl)-1H-pyrazolo[3,4-b]pyridin-3-yl]-5,7-dihydro-6H-pyrrolo[2,3-d]pyrimidin-6-one] the “Maximum peak decrease” value was “C (Category C=SBP in SHRs>40 mmHg)”.
For `CC1(C(N)=O)C(=O)Nc2nc(-c3nn(CCC(F)(F)C(F)(F)F)c4ccccc34)nc(N)c21` (stereo not shown) [Example 193, 4-amino-5-methyl-6-oxo-2-[1-(3,3,4,4,4-pentafluorobutyl)-1H-indazol-3-yl]-6,7-dihydro-5H-pyrrolo[2,3-d]pyrimidine-5-carboxamide], the “Maximum peak decrease” value was “C (Category C=SBP in SHRs>40 mmHg)”.
For `CNc1nc(-c2nc(CCC(F)(F)C(F)(F)F)n3ncccc23)nc2c1C(C)(C(=O)NC1CC1)C(=O)N2` (stereo not shown) [Example 260, N-cyclopropyl-5-methyl-4-(methylamino)-6-oxo-2-[7-(3,3,4,4,4-pentafluorobutyl)imidazo[1,5-b]pyridazin-5-yl]-6,7-dihydro-5H-pyrrolo[2,3-d]pyrimidine-5-carboxamide], the “Maximum peak decrease” value was “B (Category B=SBP in SHRs 25-40 mmHg)”.

Same assay, conditions: single oral dose 1 mpk P.O.
`Cc1nc(C2(C)C(=O)Nc3nc(-c4nc(CCCC(F)(F)F)n5cc(Cl)ccc45)nc(N)c32)no1` (stereo not shown) [Example 249, 4-amino-2-[6-chloro-3-(4,4,4-trifluorobutyl)imidazo[1,5-a]pyridin-1-yl]-5-methyl-5-(5-methyl-1,2,4-oxadiazol-3-yl)-5,7-dihydro-6H-pyrrolo[2,3-d]pyrimidin-6-one] was tested, and the “Maximum peak decrease” value was “A (Category A=SBP in SHRs<25 mmHg)”.
